The source made the active and inactive calls. The calls are words filed in the database; no cut-off is given here.
Columns and labels:
[1] = Permeability of the compound by PAMPA method; assay type: ADME
[2] = Stability in rat liver microsomes at 1 uM in presence of NADPH regeneration system incubated for 15 mins by LC-MS analysis; assay type: ADME, Microsome
[3] = Lipophilicity, logD of the compound; assay type: physicochemical; details: octanol/water
[4] = biological target: Activin receptor type-2A (Homo sapiens) (UniProt P27037); assay: Inhibition of human ACVR2A expressed in baculovirus expression system
Chain of Activin receptor type-2A (Homo sapiens) (P27037 whole entry): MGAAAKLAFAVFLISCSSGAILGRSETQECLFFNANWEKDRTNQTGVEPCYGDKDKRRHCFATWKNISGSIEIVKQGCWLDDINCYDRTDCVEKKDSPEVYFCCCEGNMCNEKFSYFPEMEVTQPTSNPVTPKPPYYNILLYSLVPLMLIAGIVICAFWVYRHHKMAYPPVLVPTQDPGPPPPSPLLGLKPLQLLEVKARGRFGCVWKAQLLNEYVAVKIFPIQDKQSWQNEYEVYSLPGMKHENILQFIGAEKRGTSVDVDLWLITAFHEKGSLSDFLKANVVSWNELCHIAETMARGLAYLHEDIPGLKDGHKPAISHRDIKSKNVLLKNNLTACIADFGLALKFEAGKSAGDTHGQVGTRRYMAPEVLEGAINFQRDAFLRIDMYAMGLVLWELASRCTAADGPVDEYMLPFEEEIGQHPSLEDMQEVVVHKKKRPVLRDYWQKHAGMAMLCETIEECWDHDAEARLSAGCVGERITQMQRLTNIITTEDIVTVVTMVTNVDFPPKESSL

SMILES	logD [3]	other results
CNC(=O)Nc1ccc(-c2cncc(-c3ccc(NS(C)(=O)=O)cc3)c2)cc1	1.6	–
CC(=O)Nc1cccc(-c2cncc(/C=C3\SC(=N)NC3=O)c2)c1	1.5	–
CS(=O)(=O)Nc1ccc(-c2cncc(-c3ccc4[nH]ccc4c3)c2)cc1	2.5	–
CC(=O)Nc1cccc(Oc2cncc(-c3ccc(NS(C)(=O)=O)cc3)c2)c1	1.5	–
CC(=O)Nc1cccc(Nc2cncc(-c3ccc(NS(C)(=O)=O)cc3)c2)c1	1.5	–
N=C1NC(=O)/C(=C/c2cncc(-c3ccc(OC(F)(F)F)cc3)c2)S1	3.7	–
CS(=O)(=O)Nc1ccc(-c2cncc(-c3ccc4cc[nH]c4c3)c2)cc1	2.5	–
CN(C)c1ccc(-c2cncc(/C=C3\SC(=N)NC3=O)c2)cc1	2.4	–
CS(=O)(=O)Nc1ccc(-c2cncc(-c3cccc4[nH]ccc34)c2)cc1	2.5	permeability [1]: Permeable; Stability [2]: Stable; inhibition [4]: Active
COc1ccc(-c2cncc(/C=C3\SC(=N)NC3=O)c2)c2ccccc12	3.1	–
CS(=O)(=O)Nc1ccc(-c2cc(/C=C3\SC(=N)NC3=O)cnc2N)cc1	0.41	permeability [1]: Impermeable; Stability [2]: Stable
CC(=O)Nc1cccc(-c2cncc(-c3ccc(NS(C)(=O)=O)cc3)c2)c1	1.7	–

Now from value to molecule, other results behind:

logD [3]	SMILES	other results
0.66	CS(=O)(=O)Nc1ccc(-c2cncc(/C=C3\SC(=N)NC3=O)c2)cc1	permeability [1]: Impermeable; Stability [2]: Stable
1.5	CS(=O)(=O)Nc1ccc(-c2cncc(-c3cccc4c3CC(=O)N4)c2)cc1	–
-0.05	CS(=O)(=O)Nc1ccc(-c2cncc(/C=C3\SC(=O)NC3=O)c2)cc1	Stability [2]: Stable
1.5	CC(=O)Nc1ccc(-c2cncc(/C=C3\SC(=N)NC3=O)c2)cc1	–
1.1	CNS(=O)(=O)c1ccc(-c2cncc(/C=C3\SC(=N)NC3=O)c2)cc1	–
1.1	CS(=O)(=O)c1ccc(-c2cncc(/C=C3\SC(=N)NC3=O)c2)cc1	–
-0.14	CS(=O)(=O)Nc1ccc(-c2cncc(/C=C3\CC(=O)NC3=O)c2)cc1	–
1.4	CNC(=O)Nc1ccc(-c2cncc(/C=C3\SC(=N)NC3=O)c2)cc1	–
-1	CS(=O)(=O)Nc1ccc(-c2cncc(/C=C3\OC(=O)NC3=O)c2)cc1	–
0.41	CS(=O)(=O)Nc1ccc(-c2cnc(N)c(/C=C3\SC(=N)NC3=O)c2)cc1	–

Reference: ChEMBL document CHEMBL4402604, “Discovery and Structure-Activity Relationship Study of (Z)-5-Methylenethiazolidin-4-one Derivatives as Potent and Selective Pan-phosphatidylinositol 5-Phosphate 4-Kinase Inhibitors” (J Med Chem, 2020)
